Experiment: In vivo absorption of lofexidine from the sublingual cavity (pharmacokinetics, sublingual vs intravenous)
Design: species or system rabbit
Procedure: These experiments determine the bioavailability of lofexidine after transmucosal administration to the sublingual tissue in rabbit and compare it to that after intravenous administration.
The transmucosal absorption of lofexidine was measured using an in vivo technique in rabbits. Following introduction of lidocaine local anesthesia, a catheter was placed in the marginal ear artery of the rabbit for blood sample collection. For intravenous administration, a catheter was placed in the marginal ear vein of the rabbit and lofexidine hydrochloride aqueous solution (0.1 mL) was administered; a sterile drug solution was prepared by filtration (double 0.22 μm filters). A dose of 1 mg/kg lofexidine was injected into the marginal ear vein cannula followed by a 0.1 mL flush with 10% (v/v) heparin/normal saline solution to keep the cannula patent.
For sublingual administration, the lofexidine dose (1 mg/kg, 0.1 mL) of the lofexidine formulation was applied to the sublingual mucosa of the rabbit.
Aliquot parts of 1 mL blood samples were collected at predetermined time points, collected into pre-heparinized tubes and immediately placed on ice. Plasma was separated by centrifugation at 3000 rpm for 10 min, placed in polypropylene tubes, and frozen at −20° C. until the time of analysis.
Bioavailability of sublingually administered drug was calculated by comparing the plasma drug concentration between sublingual and intravenous delivery routes and expressed as a percentage of the intravenous bioavailability.
The formulation instilled into the sublingual area of the rabbits in this experiment had the following composition: • Lofexidine hydrochloride 6000 mg • Isopropanol 2 mL • Phosphate buffer (0.05 M, pH 6)
The lofexidine is dissolved in the isopropanol and the phosphate buffer to make the volume up to 200 mL.
The internal standard (IS) solution was prepared by dissolving d^4-lofexidine in a methanol:water (50:50) mixture to get a (1000 ng/mL) concentration. Plasma samples (50 μL) were spiked with IS solution (10 μL), followed by vortex mixing for 1 minute. The mixture was mixed with acetonitrile (50 μL) to precipitate plasma proteins and allowed to vortex for another minute. After centrifugation for 10 minute at 10,000 rpm, the supernatant was collected into HPLC vials in preparation for analysis by Ultra Performance Liquid Chromatography Mass Spectroscopy (UPLC/MS) system.
All analytical procedures were performed using a Waters Acquity® Ultra UPLC/MS. An Acquity UPLC BEH Shield RP18 (2.1×100 mm) column (Waters) was used to separate the chemical components at 40° C. The flow rate was 0.3 mL/min of two mobile phases, (A) made of 5 mM ammonium acetate (pH 4) and acetonitrile (90:10) and (B) of acetonitrile, 5 mM ammonium acetate (pH 4) (90:10). The mass spectrometer was operated in the positive electrospray ionization (ESI) mode. The capillary voltage and cone voltage were maintained at 0.6 kV and 35 V, respectively. The source temperature and desolvation temperature were set at 100 and 350° C., respectively. Nitrogen was used as both the cone gas (50 L/h) and the desolvation gas (700 L/h). Mass chromatograms and mass spectral data were acquired and processed by MassLynx software (Waters).

[1] = rabbit, sublingual administration, 1 mg/kg single dose, rabbits (n = 3), plasma, average

Work on `CC(Oc1c(Cl)cccc1Cl)C1=NCCN1` (stereo not drawn) [lofexidine, 2-[1-(2,6 dichlorophenoxy)ethyl]-4,5-dihydro-1H-Imidazole] yielded a bioavailability (rabbit, other: sublingual (transmucosal), sublingual vs intravenous, 1 mg/kg, rabbits, from areas under the plasma concentration versus time curves, read-out: bioavailability (of the administered dose, relative to intravenous)) of ~80%, a Tmax (rabbit, sublingual administration, 1 mg/kg single dose, rabbits (n = 3), plasma) of 10 min and a Cmax [1] of 392 ± 127 ng/mL. For the same compound, the half-life [1] was 75 ± 2.7 min, the “time of peak plasma concentration following transmucosal administration” value (sublingual route, 1 mg/kg, rabbits) was “approximately 10 minutes” and the “absorption following transmucosal administration through the sublingual route” value (sublingual, 1 mg/kg, rabbits, comparing AUCs with intravenous) was “rapidly and completely absorbed”.

Reference: patent publication US20130095174A1, “Compositions and Methods for Transmucosal Delivery of Lofexidine” (US WORLDMEDS, LLC, priority 2008, published 2013)
